Patent US20060069132A1, “Azolecarboxamide herbicides” (priority 2004, published 2006)
Where two headings read alike, the source gives them in different places.

Experiments:
redroot pigweed = experiment: Test A pre-/postemergence herbicide test; format: in vivo, Amaranthus retroflexus; settings: Amaranthus retroflexus, 240 h; for pest or weed control at 500 g/ha: 500 g ai/ha; for pest or weed control at 2000 g/ha: 2000 g ai/ha
Summary of the method: (§1)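 Plants are held in greenhouse about ten days after treatment, then compared with untreated controls and scored 0 (no effect) to 100 (complete control). Preemergence dosing is a directed soil spray on sown sandy loam; postemergence dosing is spray to runoff at 2–10 cm height.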

giant foxtail = experiment: Test A pre-/postemergence herbicide test; format: in vivo, Setaria faberi; settings: Setaria faberi, 240 h; for pest or weed control at 500 g/ha: 500 g ai/ha; for pest or weed control at 2000 g/ha: 2000 g ai/ha
Summary of the method: as §1

barnyardgrass = experiment: Test A pre-/postemergence herbicide test; format: in vivo, Echinochloa crus-galli; settings: Echinochloa crus-galli, 240 h; for pest or weed control at 500 g/ha: 500 g ai/ha; for pest or weed control at 2000 g/ha: 2000 g ai/ha
Summary of the method: as §1

ducksalad = experiment: Test C flooded paddy test; format: in vivo, Heteranthera limosa; settings: for pest or weed control at 62 g/ha / pest or weed control at 125 g/ha / pest or weed control at 250 g/ha / pest or weed control at 500 g/ha: Heteranthera limosa; for pest or weed control at 500 g/ha / Plant response rating, Ducksalad: 500 g ai/ha, visual rating after 12 to 14 days; for pest or weed control at 500 g/ha: read-out: Plant response rating, Ducksalad
[1] = tested on: smallflower umbrella sedge; experiment: Test C flooded paddy test; format: in vivo, Cyperus difformis; settings: for pest or weed control at 62 g/ha / pest or weed control at 125 g/ha / pest or weed control at 250 g/ha / pest or weed control at 500 g/ha: Cyperus difformis; for pest or weed control at 500 g/ha / Plant response rating, Sedge, Umbrella: 500 g ai/ha, visual rating after 12 to 14 days; for pest or weed control at 500 g/ha: read-out: Plant response rating, Sedge, Umbrella
[2] = post-emergence, Postemergence, 0 to 100 scale, 0 no effect, 100 complete control, read-out: Pigweed plant response rating
[3] = post-emergence, Postemergence, 0 to 100 scale, 0 no effect, 100 complete control, read-out: Plant response rating, Pigweed
[4] = pre-emergence, Preemergence, visual rating, 0 to 100 scale (0 no effect, 100 complete control), read-out: Pigweed plant response rating
[5] = pre-emergence, preemergence, visual injury, 0 to 100 scale (0 no effect, 100 complete control), read-out: Pigweed plant response rating
[6] = post-emergence, Postemergence, 0 to 100 scale, 0 no effect, 100 complete control, read-out: Foxtail, Giant plant response rating
[7] = post-emergence, Postemergence, 0 to 100 scale, 0 no effect, 100 complete control, read-out: Plant response rating, Foxtail, Giant
[8] = pre-emergence, Preemergence, visual rating, 0 to 100 scale (0 no effect, 100 complete control), read-out: Foxtail, Giant plant response rating
[9] = post-emergence, Postemergence, 0 to 100 scale, 0 no effect, 100 complete control, read-out: Barnyardgrass plant response rating
[10] = post-emergence, Postemergence, 0 to 100 scale, 0 no effect, 100 complete control, read-out: Plant response rating, Barnyardgrass
[11] = pre-emergence, Preemergence, visual rating, 0 to 100 scale (0 no effect, 100 complete control), read-out: Barnyardgrass plant response rating
[12] = 62 g ai/ha, scale 0 to 100 (0 no effect, 100 complete control), read-out: Ducksalad plant response rating
[13] = 125 g ai/ha, scale 0 to 100 (0 no effect, 100 complete control), read-out: Ducksalad plant response rating
[14] = 250 g ai/ha, scale of 0 to 100, 0 is no effect, 100 is complete control, read-out: Ducksalad plant response rating
[15] = scale 0 to 100 (0 no effect, 100 complete control)
[16] = 62 g ai/ha, scale 0 to 100 (0 no effect, 100 complete control), read-out: Sedge, Umbrella plant response rating
[17] = 125 g ai/ha, scale 0 to 100 (0 no effect, 100 complete control), read-out: Sedge, Umbrella plant response rating
[18] = 250 g ai/ha, scale of 0 to 100, 0 is no effect, 100 is complete control, read-out: Sedge, Umbrella plant response rating
[19] = 125 g ai/ha, scale 0 to 100 (0 no effect, 100 complete control)
[20] = 250 g ai/ha, scale of 0 to 100, 0 is no effect, 100 is complete control

CCn1nc(C(C)(C)C)cc1C(=O)Nc1cccc(C(=O)OC)n1 [Compound 143, methyl 6-[[[3-(1,1-dimethylethyl)-1-ethyl-1H-pyrazol-5-yl]carbonyl]amino]-2-pyridinecarboxylate]
pest or weed control at 500 g/ha (redroot pigweed; [2]): 20%
pest or weed control at 2000 g/ha (redroot pigweed; [3]): 35%
pest or weed control at 2000 g/ha (redroot pigweed; [4]): 0%
pest or weed control at 500 g/ha (redroot pigweed; [5]): 0%
pest or weed control at 500 g/ha (giant foxtail; [6]): 10%
pest or weed control at 2000 g/ha (giant foxtail; [7]): 15%
pest or weed control at 500 g/ha (giant foxtail; [8]): 0%
pest or weed control at 2000 g/ha (giant foxtail; [8]): 0%
pest or weed control at 500 g/ha (barnyardgrass; [9]): 10%
pest or weed control at 2000 g/ha (barnyardgrass; [10]): 25%
pest or weed control at 500 g/ha (barnyardgrass; [11]): 0%
pest or weed control at 2000 g/ha (barnyardgrass; [11]): 0%

CCn1nc(C(C)(C)C)cc1C(=O)Nc1cc(C(=O)OC)ccn1 [Compound 151, methyl 2-[[[3-(1,1-dimethylethyl)-1-ethyl-1H-pyrazol-5-yl]carbonyl]amino]-4-pyridinecarboxylate]
pest or weed control at 500 g/ha (redroot pigweed; [2]): 35%
pest or weed control at 2000 g/ha (redroot pigweed; [3]): 70%
pest or weed control at 2000 g/ha (redroot pigweed; [4]): 0%
pest or weed control at 500 g/ha (redroot pigweed; [5]): 0%
pest or weed control at 500 g/ha (giant foxtail; [6]): 10%
pest or weed control at 2000 g/ha (giant foxtail; [7]): 10%
pest or weed control at 500 g/ha (giant foxtail; [8]): 0%
pest or weed control at 2000 g/ha (giant foxtail; [8]): 0%
pest or weed control at 500 g/ha (barnyardgrass; [9]): 10%
pest or weed control at 2000 g/ha (barnyardgrass; [10]): 10%
pest or weed control at 500 g/ha (barnyardgrass; [11]): 0%
pest or weed control at 2000 g/ha (barnyardgrass; [11]): 0%

CCn1nc(C(C)(C)C)cc1C(=O)Nc1ccc(F)c(C(=O)N(C)C)c1 [Compound 236, N-[3-[(dimethylamino)carbonyl]-4-fluorophenyl]-3-(1,1-dimethylethyl)-1-ethyl-1H-pyrazole-5-carboxamide]
pest or weed control at 62 g/ha (ducksalad; [12]): 0%
pest or weed control at 125 g/ha (ducksalad; [13]): 40%
pest or weed control at 250 g/ha (ducksalad; [14]): 55%
pest or weed control at 500 g/ha (ducksalad; [15]): 80%
pest or weed control at 62 g/ha [1, 16]: 0%
pest or weed control at 125 g/ha [1, 17]: 20%
pest or weed control at 250 g/ha [1, 18]: 45%
pest or weed control at 500 g/ha [1, 15]: 55%

CCNC(=O)c1cc(NC(=O)c2cn(C(C)(C)C)nc2CC)ccc1F [Compound 241, 1-(1,1-dimethylethyl)-3-ethyl-N-[3-[(ethylamino)carbonyl]-4-fluorophenyl]-1H-pyrazole-4-carboxamide]
pest or weed control at 62 g/ha (ducksalad; [12]): 0%
pest or weed control at 125 g/ha (ducksalad; [13]): 0%
pest or weed control at 250 g/ha (ducksalad; [14]): 0%
pest or weed control at 500 g/ha (ducksalad; [15]): 15%
pest or weed control at 62 g/ha [1, 16]: 0%
pest or weed control at 125 g/ha [1, 17]: 0%
pest or weed control at 250 g/ha [1, 18]: 55%
pest or weed control at 500 g/ha [1, 15]: 85%

CCOC(=O)c1ccc(F)c(NC(=O)C2CC(C(C)(C)C)=NN2CC)c1 (centres unmarked) [Compound 267, ethyl 3-[[[3-(1,1-dimethylethyl)-1-ethyl-4,5-dihydro-1H-pyrazol-5-yl]carbonyl]amino]-4-fluorobenzoate]
pest or weed control at 500 g/ha (redroot pigweed; [2]): 40%
pest or weed control at 2000 g/ha (redroot pigweed; [3]): 60%
pest or weed control at 2000 g/ha (redroot pigweed; [4]): 80%
pest or weed control at 500 g/ha (redroot pigweed; [5]): 5%
pest or weed control at 500 g/ha (giant foxtail; [6]): 30%
pest or weed control at 2000 g/ha (giant foxtail; [7]): 55%
pest or weed control at 2000 g/ha (giant foxtail; [8]): 85%
pest or weed control at 500 g/ha (giant foxtail; pre-emergence, preemergence, visual injury, 0 to 100 scale (0 no effect, 100 complete control), read-out: Foxtail, Giant plant response rating): 75%
pest or weed control at 500 g/ha (barnyardgrass; [9]): 40%
pest or weed control at 2000 g/ha (barnyardgrass; [10]): 65%
pest or weed control at 2000 g/ha (barnyardgrass; [11]): 80%
pest or weed control at 500 g/ha (barnyardgrass; pre-emergence, preemergence, visual injury, 0 to 100 scale (0 no effect, 100 complete control), read-out: Barnyardgrass plant response rating): 70%

CCOC(=O)c1ccc(F)c(NC(=O)c2cc(C3(C)CC3)nn2CC)c1 [Compound 296]
Ducksalad plant response rating (ducksalad; 62 g ai/ha, scale 0 to 100): 0
Ducksalad plant response rating (ducksalad; [19]): 0
Ducksalad plant response rating (ducksalad; [20]): 40
Plant response rating, Ducksalad (ducksalad; [15]): 70
Sedge, Umbrella plant response rating ([1]; 62 g ai/ha, scale 0 to 100): 75
Sedge, Umbrella plant response rating [1, 19]: 75
Sedge, Umbrella plant response rating [1, 20]: 75
Plant response rating, Sedge, Umbrella [1, 15]: 85

CCc1nn(C(C)C)nc1C(=O)Nc1cccc(C(=O)N(C)C)c1 [Compound 358, N-[3-[(dimethylamino)carbonyl)phenyl]-5-ethyl-2-(1-methylethyl)-2H-1,2,3-triazole-4-carboxamide]
pest or weed control at 62 g/ha (ducksalad; 62 g ai/ha, scale 0 to 100, read-out: Ducksalad plant response rating): 0%
pest or weed control at 125 g/ha (ducksalad; [13]): 80%
pest or weed control at 250 g/ha (ducksalad; [14]): 90%
pest or weed control at 500 g/ha (ducksalad; [15]): 95%
pest or weed control at 62 g/ha ([1]; 62 g ai/ha, scale 0 to 100, read-out: Sedge, Umbrella plant response rating): 15%
pest or weed control at 125 g/ha [1, 17]: 85%
pest or weed control at 250 g/ha [1, 18]: 85%
pest or weed control at 500 g/ha [1, 15]: 85%

C#CCNC(=O)c1cccc(NC(=O)c2nn(C(C)(C)C)nc2CC)c1 [Compound 380]
Ducksalad plant response rating (ducksalad; 62 g ai/ha, scale 0 to 100): 25
Ducksalad plant response rating (ducksalad; [19]): 50
Ducksalad plant response rating (ducksalad; [20]): 75
Plant response rating, Ducksalad (ducksalad; [15]): 85
Sedge, Umbrella plant response rating ([1]; 62 g ai/ha, scale 0 to 100): 80
Sedge, Umbrella plant response rating [1, 19]: 85
Sedge, Umbrella plant response rating [1, 20]: 85
Plant response rating, Sedge, Umbrella [1, 15]: 90

C#CCOc1cccc(NC(=O)c2cc(C(C)(C)C)nn2CC)c1 [Compound 411]
Ducksalad plant response rating (ducksalad; 62 g ai/ha, scale 0 to 100): 25
Ducksalad plant response rating (ducksalad; [19]): 50
Ducksalad plant response rating (ducksalad; [20]): 70
Plant response rating, Ducksalad (ducksalad; [15]): 80
Sedge, Umbrella plant response rating ([1]; 62 g ai/ha, scale 0 to 100): 60
Sedge, Umbrella plant response rating [1, 19]: 75
Sedge, Umbrella plant response rating [1, 20]: 80
Plant response rating, Sedge, Umbrella [1, 15]: 85

C=CCOc1cccc(NC(=O)c2cc(C(C)(C)C)nn2CC)c1 [Compound 412]
Ducksalad plant response rating (ducksalad; 62 g ai/ha, scale 0 to 100): 0
Ducksalad plant response rating (ducksalad; [19]): 30
Ducksalad plant response rating (ducksalad; [20]): 60
Plant response rating, Ducksalad (ducksalad; [15]): 90
Sedge, Umbrella plant response rating ([1]; 62 g ai/ha, scale 0 to 100): 70
Sedge, Umbrella plant response rating [1, 19]: 75
Sedge, Umbrella plant response rating [1, 20]: 80
Plant response rating, Sedge, Umbrella [1, 15]: 95
